Data set [1] relates to embryonic cell (C3H10T1/2). As to the kind of experiment: Adipocyte differentiation of C3H10T1/2 cells induced with insulin plus drugs. It counts as cell-based. The note with it: differentiation induced with insulin plus indomethacin, troglitazone or 15-deoxy-delta(12,14)-prostaglandin-J2. An excerpt:
For these example, differentiation was induced in the presence of insulin with drugs, including indomethacin, and troglitazone, one of the anti-diabetes drugs of the thiazolidinedione family, as well as 15-deoxy-delta (12, 14)-prostaglandin-J2, a putative endogenous ligand for the peroxisome proliferator-activated receptor-gamma. Our results clearly indicate that tocopherols and tocotrienols inhibit adipogenesis.

Data set [2] concerns adipocytes. As to the kind of experiment: Weight gain and adipocyte triglyceride accumulation in mice fed a high-fat diet. Type of data set: in vivo, BALB/c mice. The conditions noted are these: food admixture 0.1%, 3%, 0.02% or 0.01%. How it is done: We evaluate weight gain and triglyceride accumulation in adipocytes in mice fed a high-fat diet. Six-week-old BALB/c mice are fed powdered chow with various tocopherols and tocotrienols and mixtures thereof, as 0.1%, 3%, 0.02%, or 0.01% food admixtures. For histological analysis of adipose and hepatic tissues and determination of adipocyte size, adipose tissue is removed from each animal and fixed in 10% formaldehyde/PBS and maintained at 4° C. until use. Fixed specimens are dehydrated, embedded in tissue-freezing medium and frozen in dry ice and acetone. White adipose tissue is cut into 10-μm sections, and the sections mounted on silanized slides. The adipose tissue is stained with hematoxylin and eosin (H&E). Mature white adipocytes are identified by their characteristic […] appearance. Total adipocyte areas are traced manually and analyzed with Win ROOF software (Mitani Co. Ltd., Chiba, Japan). White adipocyte areas are measured in 400 or more cells per mouse in each group according to methods previously described (Kubota, N. et al.1999, Mol. Cell. 4:597-609).

The conditions of data set [3]: treatment of diabetes; Malinowski et al. 2000; cited from earlier work.
Data set [4] relates to insulin-secreting cells. The conditions noted are these: Sjoholm et al. 2000; cited from earlier work.
The subject of data set [5] is leptin. The conditions noted are these: healthy individuals; Ismermann et al. 1999; cited from earlier work.

Here are results for nine compounds from US7399784B2, “Tocopherol and tocotrienol anti-obesity medicaments” (Children's Hospital & Research Center at Oakland, priority 2002, dated 2008).

Turning to `CC(C)=CCC/C(C)=C/CC/C(C)=C/CC[C@]1(C)CCc2cc(O)c(C)c(C)c2O1` [gamma-tocotrienol], in data set [1], the “anti-adipogenesis activity (inhibition of differentiation to adipocytes)” value is listed as “dose-dependent anti-adipogenesis activity” and the intracellular triglyceride accumulation result was “decrease intracellular triglyceride accumulation”. Also, in data set [2], the “triglyceride accumulation in adipocytes” value is “reduced triglyceride accumulation in adipocytes” and the weight gain result was “reduced weight gain”.
As to `Cc1c(C)c2c(c(C)c1O)CCC(C)(COc1ccc(CC3SC(=O)NC3=O)cc1)O2` (stereo not drawn) [troglitazone], the “weight gain and obesity” value in data set [3] was “commonly leads to weight gain and obesity”.
`Cc1c(O)cc2c(c1C)O[C@](C)(CCC[C@H](C)CCC[C@H](C)CCCC(C)C)CC2` [gamma-T, gamma-tocopherol]: in data set [1], the “anti-adipogenesis activity (inhibition of differentiation to adipocytes)” value is “dose-dependent anti-adipogenesis activity” and the intracellular triglyceride accumulation entry was “decrease intracellular triglyceride accumulation”. Besides, the “protection against functional inhibition by nitric oxide” value in data set [4] is given as “partially protects”. In addition, in data set [2], the “triglyceride accumulation in adipocytes” value is recorded as “reduced triglyceride accumulation in adipocytes” and the weight gain result is given as “reduced weight gain”.
In the case of `CCc1ccc(CCOc2ccc(CC3SC(=O)NC3=O)cc2)nc1` (stereo not drawn) [proglitazone], in data set [3], the “weight gain and obesity” value is “commonly leads to weight gain and obesity”.
Consider `CC(C)=CCC/C(C)=C/CC/C(C)=C/CC[C@]1(C)CCc2cc(O)cc(C)c2O1` [delta-tocotrienol], for which, in data set [1], the “anti-adipogenesis activity (inhibition of differentiation to adipocytes)” value is “dose-dependent anti-adipogenesis activity” and the intracellular triglyceride accumulation entry was “decrease intracellular triglyceride accumulation”. For the same compound, in data set [2], the “triglyceride accumulation in adipocytes” value was “reduced triglyceride accumulation in adipocytes” and the weight gain result is “reduced weight gain”.
In the same order, the values of alpha-tocotrienol are “dose-dependent anti-adipogenesis activity”, “decrease intracellular triglyceride accumulation”, “reduced triglyceride accumulation in adipocytes” and “reduced weight gain”.
With `Cc1cc(O)cc2c1O[C@](C)(CCC[C@H](C)CCC[C@H](C)CCCC(C)C)CC2` [delta-T, delta-tocopherol], in data set [1], the “anti-adipogenesis activity (inhibition of differentiation to adipocytes)” value is reported as “dose-dependent anti-adipogenesis activity” and the intracellular triglyceride accumulation result is on record as “decrease intracellular triglyceride accumulation”. In addition, in data set [2], the “triglyceride accumulation in adipocytes” value was “reduced triglyceride accumulation in adipocytes” and the weight gain result is listed as “reduced weight gain”.
For `CN(CCOc1ccc(CC2SC(=O)NC2=O)cc1)c1ccccn1` (stereo not drawn) [rosiglitazone], in data set [3], the “weight gain and obesity” value is “commonly leads to weight gain and obesity”.
On to `Cc1c(C)c2c(c(C)c1O)CC[C@@](C)(CCC[C@H](C)CCC[C@H](C)CCCC(C)C)O2` [alpa-T, alpha-tocopherol, reference compound], for which, in data set [1], the “anti-adipogenesis activity (inhibition of differentiation to adipocytes)” value is given as “much less effective” and the intracellular triglyceride accumulation entry was “much less effective”. Further, the leptin expression entry in data set [5] is “induces leptin expression”.
